Key:
PI3K delta = target: T1, PI3K delta (Homo sapiens, UniProt O00329); test: Drug pulldown with immobilized phenylthiazole ligand 1 from MOLT-4 lysate, Western blot; assay type: binding; settings: 50 mg protein, FIG. 2B
T1 construct: immobilized phenylthiazole ligand 1 captures (pulls down) PI3K gamma and PI3K delta from the cell lysate; endogenous in cells; host or cells: MOLT-4 cells (human T cell line, ATCC CRL-1582), cell lysate
Method: (§1) As biological material a cell lysate prepared from MOLT-4 cells was used. The drug pulldown experiment was performed as described in Example 2 with lysate samples containing 50 mg of protein. Captured proteins were eluted with DMSO containing buffer (lane 1), 100 μM of free phenylthiazole ligand 1 or SDS sample buffer (lane 3). The eluted samples were separated on SDS-polyacrylamide gels and transferred to membranes. The blots were first incubated with specific antibodies directed against PI3K gamma (FIG. 2A) and PI3K delta (FIG. 2B). Secondary detection antibodies labeled with fluorescent dyes for detection were used with the Odyssey infrared imaging system.
(§2) To this end a lysate of MOLT-4 cells was contacted with the affinity matrix described in example 1. […]
(§3) For Western blot analysis bound proteins were eluted from the affinity matrix and subsequently separated by SDS-Polyacrylamide gel electrophoresis. PI3K gamma and PI3K delta were detected with specific antibodies (FIG. 2).
(§4) MOLT-4 cells were homogenized in a Potter S homogenizer in lysis buffer: 50 mM Tris-HCl, 0.8% NP40, 5% glycerol, 150 mM NaCl, 1.5 mM MgCl2, 25 mM NaF, 1 mM sodium vanadate, 1 mM DTT, pH 7.5. […] The supernatant was transferred again to a fresh 50 ml falcon tube, the protein concentration was determined by a Bradford assay (BioRad) and samples containing 50 mg of protein per aliquot were prepared. […]

PI3K gamma = target: T2, PI3K gamma (Homo sapiens, UniProt P48736); test: as above; assay type: binding; settings: 50 mg protein, FIG. 2A
T2 construct: PI3K gamma protein was captured by immobilized phenylthiazole ligand 1 from MOLT-4 cell lysate; endogenous in cells; host or cells: MOLT-4 cells (human T cell line, ATCC CRL-1582), cell lysate
T2 sequence (P48736 whole entry): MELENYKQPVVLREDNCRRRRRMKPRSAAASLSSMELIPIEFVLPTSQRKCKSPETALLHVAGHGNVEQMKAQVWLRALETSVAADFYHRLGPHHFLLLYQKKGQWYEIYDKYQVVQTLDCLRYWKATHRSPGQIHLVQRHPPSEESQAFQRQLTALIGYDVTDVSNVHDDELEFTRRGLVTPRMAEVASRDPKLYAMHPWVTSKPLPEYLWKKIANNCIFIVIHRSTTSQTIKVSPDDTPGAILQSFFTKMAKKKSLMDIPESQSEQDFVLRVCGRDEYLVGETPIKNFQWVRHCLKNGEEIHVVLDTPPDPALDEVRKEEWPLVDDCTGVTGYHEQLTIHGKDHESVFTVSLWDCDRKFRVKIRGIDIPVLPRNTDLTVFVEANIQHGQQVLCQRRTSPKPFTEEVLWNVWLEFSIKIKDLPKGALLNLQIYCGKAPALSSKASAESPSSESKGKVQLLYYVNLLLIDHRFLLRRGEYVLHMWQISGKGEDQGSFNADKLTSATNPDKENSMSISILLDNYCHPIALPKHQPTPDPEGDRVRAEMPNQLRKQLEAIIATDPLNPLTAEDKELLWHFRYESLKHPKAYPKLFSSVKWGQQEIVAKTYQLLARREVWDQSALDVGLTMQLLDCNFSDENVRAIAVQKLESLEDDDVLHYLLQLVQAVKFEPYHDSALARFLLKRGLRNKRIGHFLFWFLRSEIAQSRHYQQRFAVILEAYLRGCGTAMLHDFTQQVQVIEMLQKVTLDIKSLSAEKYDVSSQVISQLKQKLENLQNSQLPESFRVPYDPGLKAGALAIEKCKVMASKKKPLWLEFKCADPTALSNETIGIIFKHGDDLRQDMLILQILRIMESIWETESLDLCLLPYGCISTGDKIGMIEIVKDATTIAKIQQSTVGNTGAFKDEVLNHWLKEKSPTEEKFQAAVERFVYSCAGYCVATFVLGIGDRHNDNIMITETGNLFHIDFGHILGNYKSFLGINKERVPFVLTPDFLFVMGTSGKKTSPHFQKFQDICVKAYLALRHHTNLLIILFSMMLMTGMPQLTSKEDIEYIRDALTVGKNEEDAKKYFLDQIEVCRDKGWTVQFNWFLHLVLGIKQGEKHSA
Method: as §1, §2, §3, §4

T1 sequence (O00329 whole entry): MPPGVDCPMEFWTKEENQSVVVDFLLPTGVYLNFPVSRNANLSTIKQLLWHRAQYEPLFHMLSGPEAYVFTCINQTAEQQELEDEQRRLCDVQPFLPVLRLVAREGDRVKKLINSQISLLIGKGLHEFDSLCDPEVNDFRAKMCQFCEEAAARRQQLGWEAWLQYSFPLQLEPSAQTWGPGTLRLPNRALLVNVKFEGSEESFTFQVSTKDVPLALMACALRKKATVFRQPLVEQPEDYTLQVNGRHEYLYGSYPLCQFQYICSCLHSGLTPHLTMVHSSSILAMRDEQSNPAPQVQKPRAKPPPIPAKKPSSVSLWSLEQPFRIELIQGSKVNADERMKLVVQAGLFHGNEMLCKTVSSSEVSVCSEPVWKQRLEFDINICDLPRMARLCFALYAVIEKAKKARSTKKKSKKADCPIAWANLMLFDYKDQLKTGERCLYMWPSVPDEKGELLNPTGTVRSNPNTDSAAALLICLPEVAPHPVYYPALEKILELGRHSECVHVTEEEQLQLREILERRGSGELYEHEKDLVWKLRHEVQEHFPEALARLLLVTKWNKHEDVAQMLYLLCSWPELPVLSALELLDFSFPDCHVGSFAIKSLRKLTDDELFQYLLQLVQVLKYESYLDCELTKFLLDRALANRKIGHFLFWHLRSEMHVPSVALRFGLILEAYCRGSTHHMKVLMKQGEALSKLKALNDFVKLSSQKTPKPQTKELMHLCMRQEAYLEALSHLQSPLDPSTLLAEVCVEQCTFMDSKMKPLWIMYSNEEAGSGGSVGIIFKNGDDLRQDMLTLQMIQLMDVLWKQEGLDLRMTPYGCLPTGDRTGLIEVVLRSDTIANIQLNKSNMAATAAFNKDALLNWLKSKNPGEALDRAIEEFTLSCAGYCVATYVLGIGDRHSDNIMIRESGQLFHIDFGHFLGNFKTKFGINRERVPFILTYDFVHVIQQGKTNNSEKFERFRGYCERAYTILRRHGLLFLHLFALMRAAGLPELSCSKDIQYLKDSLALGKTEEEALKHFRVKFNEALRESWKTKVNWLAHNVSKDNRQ
T1 sequence (P27986 whole entry partner): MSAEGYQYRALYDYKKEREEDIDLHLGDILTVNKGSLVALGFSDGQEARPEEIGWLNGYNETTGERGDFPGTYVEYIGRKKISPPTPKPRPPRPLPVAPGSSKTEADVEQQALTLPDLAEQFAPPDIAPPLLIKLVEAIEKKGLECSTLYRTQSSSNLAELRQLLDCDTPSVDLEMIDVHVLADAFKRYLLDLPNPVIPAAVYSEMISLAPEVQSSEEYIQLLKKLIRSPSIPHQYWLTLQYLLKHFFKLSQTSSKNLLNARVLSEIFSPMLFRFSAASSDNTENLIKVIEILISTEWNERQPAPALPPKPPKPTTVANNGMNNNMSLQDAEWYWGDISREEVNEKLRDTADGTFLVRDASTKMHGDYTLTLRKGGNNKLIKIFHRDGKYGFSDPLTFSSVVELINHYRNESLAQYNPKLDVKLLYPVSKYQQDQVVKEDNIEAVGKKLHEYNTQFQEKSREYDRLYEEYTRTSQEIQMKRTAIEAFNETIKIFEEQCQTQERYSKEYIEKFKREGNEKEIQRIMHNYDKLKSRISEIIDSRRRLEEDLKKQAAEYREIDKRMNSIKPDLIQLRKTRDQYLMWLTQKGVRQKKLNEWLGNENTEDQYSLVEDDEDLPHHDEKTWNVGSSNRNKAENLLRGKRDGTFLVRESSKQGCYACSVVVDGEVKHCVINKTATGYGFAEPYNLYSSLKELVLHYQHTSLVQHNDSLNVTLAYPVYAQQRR

Capture (pull down) of PI3K delta from the cell lysate (PI3K delta): captures
Capture (pull down) of PI3K gamma from the cell lysate (PI3K gamma): captures
Compound: Cc1nc(NC(=O)CCOCCOCCOCCOCCN)sc1-c1ccc(Cl)c(S(C)(=O)=O)c1.Cl [phenylthiazole ligand 1, 3-(2-{2-[2-(2-amino-ethoxy)-ethoxy]-ethoxy}-ethoxy)-N-[5-(4-chloro-3-methanesulfonyl-phenyl)-4-methyl-thiazol-2yl]-propionamide hydrochloride]
